The values that follow come from article PMC11940343, “In Vitro and In Vivo Evaluation of the De Novo Designed Antimicrobial Peptide P6.2 Against a KPC-Producing P. aeruginosa Clinical Isolate” (Biomolecules, 2025).

Converted amounts (≈) assume the structure as drawn. Where two headings read alike, the source gives them in different places.

The subject of one assay is Gram-negative bacteria. The conditions noted are these: cited from earlier work. The source says:
This resistance arises from enzymatic inactivation by carbapenemases, as mentioned before, decreased cellular entry due to reduced expression of the outer membrane porins, and increased expression of efflux pumps.

The test system of assay [1] is Pseudomonas aeruginosa M13513. Put plainly: MIC by broth microdilution (CLSI). The assay is classed as cell-based. To be noted: two consecutive values shown where replicates varied by one dilution. From the text:
Pseudomonas aeruginosa M13513 is a clinical isolate carrying the carbapenemase KPC-2 (blaKPC-2 gene). This strain was generously supplied by the Servicio Antimicrobianos, Instituto Nacional de Enfermedades Infecciosas (INEI)-ANLIS “Dr. Carlos G. Malbrán” in Buenos Aires, Argentina.
For antimicrobial testing, bacterial cultures were maintained in Cation-Adjusted Mueller–Hinton Broth (CAMHB), following Clinical and Laboratory Standards Institute (CLSI) guidelines.
The minimal inhibitory concentration was assessed using a standard microdilution assay, following CLSI guidelines. Mueller–Hinton Broth (Laboratorios Britania S.A., Buenos Aires, Argentina) supplemented with Ca^2+ (20–25 mg/L) and Mg^2+ (10–12.5 mg/L) was used for the assay. The bacterial strains tested included Pseudomonas aeruginosa PAO1, Pseudomonas aeruginosa M13513, and Staphylococcus aureus ATCC® 25923.

[2] abbreviates: Pseudomonas aeruginosa, M13513, CAMHB, read-out: MIC.

Turning to polymyxin B, the interaction with meropenem entry with Gram-negative bacteria is recorded as “displays synergy with meropenem”.

The term MIC denotes the smallest concentration in the dilution series that meets the test's criterion for growth inhibition. `NC[C@H]1O[C@H](O[C@H]2[C@H](O)[C@@H](O[C@H]3O[C@H](CO)[C@@H](O)[C@H](N)[C@H]3O)[C@H](N)C[C@@H]2N)[C@H](N)C[C@@H]1O` [Tobramycin]: the minimal inhibitory concentration (MIC) in assay [1] (setting [2]) is 1 µg/mL (≈ 2.14 µM).

As to `CNC(C)C1CCC(N)C(OC2C(N)CC(N)C(OC3OCC(C)(O)C(NC)C3O)C2O)O1` (centres unmarked) [Gentamicin], the MIC in assay [1] (setting [2]) was found to be 2 µg/mL (≈ 4.19 µM).

In the case of `C[C@@H](O)[C@H]1C(=O)N2C(C(=O)O)=C(SCCN=CN)C[C@H]12` [Imipenem], the MIC in assay [1] (CAMHB) is 256/512.

As for `C[C@@H](O)[C@H]1C(=O)N2C(C(=O)O)=C(S[C@@H]3CN[C@H](C(=O)N(C)C)C3)[C@H](C)[C@H]12` [Meropenem, meropenem], the minimum inhibitory concentration (MIC) in assay [1] (CAMHB) is given as 512/1024.
